In brackets after ≈: the same amount, converted by molar mass. Where two headings read alike, the source gives them in different places.
How the values were obtained:
[1] = tested on: Sheath rot (Acrocylindrium oryzae and/or Gaeumannomyces graminis and/or Helminthosporium oryzae); assay: Rice seed treatment field trial, attack type 6 (sheath rot); type: in vivo; details: vs insecticide-treated control plots, after 2 months
[2] = tested on: Rhizoctonia solani (sheath blight); assay: Rice seed treatment field trial, attack type 1 (sheath blight); type: in vivo, also called Pellicularia sasakii; details: vs insecticide-treated control plots, after 2 months
Gloeophyllum trabeum = assay: Inhibition of growth of wood-degrading fungus on agar; type: cell-based; details: agar culture medium, 20° C., read-out: IC50 (50% inhibition of the growth of the fungus)
Description: (§1) This example illustrates application against fungi which degrade wood.
(§2) Agar culture medium containing different doses of the active material to be tested is introduced into petri dishes.
(§3) Petri dishes with the same culture medium without the active material are prepared in order to act as control.
(§4) One day after the preparation of these petri dishes, agar implants supporting a fungal culture are deposited at the center of each petri dish. The fungi tested are: Serpula lacrymans, Coniophora puteana (dry and wet rots) and Gleophyllum trabeum.
(§5) The petri dishes are then placed at 20° C. until the results are recorded. The results are read when the untreated control culture has colonized virtually all the dish. The diameter of the fungal cultures is then measured and the concentration of active material causing 50% inhibition of the growth of the fungus (called the IC50) is calculated.

Coniophora puteana = assay: as above; type: cell-based; details: agar culture medium, 20° C., read-out: IC50 (50% inhibition of the growth of the fungus)
Description: as §1, §2, §3, §4, §5

Serpula lacrymans = assay: as above; type: cell-based; details: agar culture medium, 20° C., read-out: IC50 (50% inhibition of the growth of the fungus)
Description: as §1, §2, §3, §4, §5

Rhizoctonia solani = assay: Cotton seed treatment against damping off; type: in vivo; details: cotton (DP 50), 17 days; for Total damping off (in %): pre-+post-emergence, control 80; for Pre-emergence damping off (in %): control 70
Description: This example illustrates application against damping off (Rhizoctonia solani).
Cotton seeds (variety DP 50) were treated in the proportion of 125, 250 and 500 g of active material per 100 kg of seeds.
These seeds are sown in 7×7 cm pots filled with a peat/pozzolana mixture which has been pre-infected by incorporation of 1 part of an aqueous suspension containing milled Rhizoctonia solani mycelium in 1600 parts of substrate. Each pot contains 5 cotton seeds.
These pots are then placed under glass at a temperature of 25° C. and at a relative humidity of 80% for 17 days.
The results with respect to early damping off (pre-emergence) and with respect to all the damping off attacks (pre-+post-emergence) are shown in the table below (expressed as percentage). The control seedlings correspond to pots filled with a substrate infected with the disease in which untreated cotton seeds have been sown.

Pyrenophora graminea = assay: Barley seed treatment against leaf stripe; type: in vivo; details: barley (Agneta), naturally infected, 100 g/100 kg seeds
Description: This example illustrates application against leaf stripe (Pyrenophora graminea).
Barley seeds (variety Agneta), naturally infected with Pyrenophora graminea, were treated in the proportion of 100 g of active material per 100 kg of seeds.
(§6) These seeds are sown in 7×7 cm pots filled with a peat/pozzolana mixture in the proportion of 25 seeds per pot.
These pots are maintained at 5° C. and in darkness for 3 weeks and are then placed at 10° C. under artificial light for 1 week. They are finally placed under glass, on sand kept moist by regular sprinkling, at 20° C. and 60% relative humidity for 3 weeks.
The seedlings carrying the disease (seedlings carrying off-white streaks along the leaves) are then counted and the following results (expressed as percentage) are obtained. The control seedlings correspond to pots in which barley seeds, naturally infected with the disease, have been sown, which seeds have not been treated. Two successive tests were carried out.

[3] = tested on: Rhynchosporium oryzae (leaf scald); assay: Rice seed treatment field trial, attack type 5 (leaf scald = leaf tip blight); type: in vivo; details: vs insecticide-treated control plots, after 2 months
[4] = tested on: Puccinia recondita forma speciae tritici; assay: Wheat seed treatment against brown rust; type: in vivo; details: wheat (Theseus), infected foliar area, control 61
Description: EXAMPLE 8 This example illustrates application against brown rust of wheat (Puccinia recondita forma speciae tritici).
Wheat seeds (variety Theseus) were treated in the proportion of 10, 25, 50 and 100 g of active material per 100 kg of seeds.
These seeds are sown in 7×7 cm pots filled with a peat/pozzolana mixture in the proportion of 40 to 50 seeds per pot.
These pots are maintained at 10° C. under artificial light for 3 weeks, so that they arrive at the growth stage known as the 1-2-leaf stage.
Infection is then carried out by spraying an aqueous suspension containing 100000 spores of Puccinia recondita per ml.
The pots are then placed at 20° C. and 100% relative humidity for 24 hours and then under glass, on sand kept moist by regular sprinkling, at 20° C. and 80% relative humidity for 10 days.
The infected foliar area of the 1st leaf is then quantified visually.
The results shown in the table below (expressed as percentage) are obtained. The control seedlings correspond to pots in which untreated wheat seeds have been sown, which seeds have been infected by the disease.

[5] = tested on: Pyricularia oryzae (neck blast); type: in vivo; details: vs insecticide-treated control plots, after 2 months
[6] = tested on: Pyricularia oryzae (leaf blast); type: in vivo, also called Magnaporthe grisae; details: vs insecticide-treated control plots, after 2 months
Microdochium nivale = assay: Wheat seed treatment against snow mould; type: in vivo; details: wheat (Ixos), naturally infected, control 96
Description: This example illustrates application against snow mould (Microdochium nivale).
Wheat seeds (variety Ixos), naturally infected with Microdochium nivale, were treated in the proportion of 5, 10, 25, 50 and 100 g of active material per 100 kg of seeds.
as §6
These pots are maintained at 5° C. and in darkness for 3 weeks and are then placed at 10° C. under artificial light for 1 week. They are finally placed under glass, on sand kept moist by regular sprinkling, at 20° C. and 60% relative humidity for 1 week.
The seedlings carrying the disease (unemerged seedlings and deformed seedlings) are then counted and the results shown in the table below (expressed as percentage) are obtained. The control seedlings correspond to pots in which wheat seeds, naturally infected with the disease, have been sown, which seeds have not been treated.

[7] = tested on: Helminthosporium oryzae (brown spot); assay: Rice seed treatment field trial, attack type 2 (brown spot); type: in vivo, also called Cochliobolus miyabeanus; details: vs insecticide-treated control plots, after 2 months
Fusarium moniliforme = assay: Maize seed treatment against root rot; type: in vivo; details: maize (Pinnacle), control 92
Description: This example illustrates application against root rot (Fusarium moniliforme).
Maize seeds (variety Pinnacle) were treated in the proportion of 125 and 250 g of active material per 100 kg of seeds.
These seeds are sown in 7×7 cm pots filled with vermiculite in the proportion of 5 seeds per pot. Infection is carried out by introducing, into the vicinity of the seeds, in the upper part of the substrate, 10 ml of an aqueous suspension containing 400000 spores of Fusarium moniliforme per ml.
These pots are then maintained at 80% humidity for 3 weeks at 8° C. and then for 2 weeks at 16° C.
The seedlings carrying the disease (unemerged seedlings and seedlings with slowed and deformed growth) are then counted and the results shown in the table below (expressed as percentage) were obtained. The control seedlings correspond to pots in which untreated maize seeds have been sown, which seeds have been infected with the disease.

Sphacelotheca reiliana = assay: Maize seed treatment against head smut; type: in vivo; details: maize (Adonis), 250 g/100 kg seeds, 3 months after sowing
Description: This example illustrates application against head smut (Sphacelotheca reiliana).
Maize seeds (variety Adonis) were treated in the proportion of 250 g of active material per 100 kg of seeds.
These seeds are sown in 9×9 cm pots filled with a mixture of compost and coarse sand which has been pre-infected by incorporation of Sphacelotheca reiliana spores according to 2 infectious doses: […] of substrate. Each pot contains 5 maize seeds.
These pots are then placed under glass on sand kept moist by regular sprinkling, at a temperature of 20° C. and a relative humidity of 60%.
Three months after sowing, the seedlings carrying the disease (presence or absence of smut in the maize inflorescences) are counted and the results shown in the table below (expressed as percentage) are obtained. The control seedlings correspond to pots filled with a substrate infected with the disease in which untreated maize seeds have been sown.

[8] = tested on: Grain discoloration (Pseudomonas spp., Erwinia herbicola, Helminthosporium oryzae and/or Alternaria spp.); assay: Rice seed treatment field trial, attack type 7 (grain discoloration); type: in vivo; details: vs insecticide-treated control plots
[9] = Ex. 1: 40 g/100 kg rice seed, 150 kg/ha
[10] = Ex. 2: 40 g/100 kg rice seed, 200 kg/ha
[11] = Ex. 3: 40 g/100 kg rice seed, 150 kg/ha, pregerminated
[12] = Ex. 4: 40 g/100 kg rice seed, 200 kg/ha, pregerminated

## N#Cc1nn(-c2c(Cl)cc(C(F)(F)F)cc2Cl)c(N)c1[S+]([O-])C(F)(F)F (stereo not shown) [Compound A, 5-amino-3-cyano-1-(2,6-dichloro-4-trifluoromethyl)phenyl-4-trifluoromethylsulfinylpyrazole]
[1]; [9]
  number of sheaths attacked; result observed, expressed as percentage: 80 percentage
[1]; [10]
  number of sheaths attacked; result observed, expressed as percentage: 88 percentage
[1]; [11]
  number of sheaths attacked; result observed, expressed as percentage: 80 percentage
[1]; [12]
  number of sheaths attacked; result observed, expressed as percentage: 88 percentage
[2]; [9]
  number of sheaths attacked; result observed, expressed as percentage: 55 percentage
[2]; [10]
  number of sheaths attacked; result observed, expressed as percentage: 60 percentage
[2]; [11]
  number of sheaths attacked; result observed, expressed as percentage: 55 percentage
[2]; [12]
  number of sheaths attacked; result observed, expressed as percentage: 60 percentage
Gloeophyllum trabeum
  IC50: 0.3 µg/mL (≈ 0.686 µM)
Coniophora puteana
  IC50: 16.3 µg/mL (≈ 37.3 µM)
Serpula lacrymans
  IC50: 14.5 µg/mL (≈ 33.2 µM)
Rhizoctonia solani; 125 g/100 kg seeds
  Total damping off (in %): 50%
  Pre-emergence damping off (in %): 45%
Rhizoctonia solani; 250 g/100 kg seeds
  Total damping off (in %): 60%
  Pre-emergence damping off (in %): 45%
Rhizoctonia solani; 500 g/100 kg seeds
  Total damping off (in %): 50%
  Pre-emergence damping off (in %): 10%
Pyrenophora graminea; Test No. 1, control 50
  Number of diseased seedlings (in %): 34%
Pyrenophora graminea; Test No. 2, control 44
  Number of diseased seedlings (in %): 29%
[3]; [9]
  number of leaves having a withered part; result observed, expressed as percentage: 57 percentage
[3]; [10]
  number of leaves having a withered part; result observed, expressed as percentage: 63 percentage
[3]; [11]
  number of leaves having a withered part; result observed, expressed as percentage: 57 percentage
[3]; [12]
  number of leaves having a withered part; result observed, expressed as percentage: 63 percentage
[4]; 10 g/100 kg seeds
  Infection of the 1st leaf (in %): 47%
[4]; 25 g/100 kg seeds
  Infection of the 1st leaf (in %): 37%
[4]; 50 g/100 kg seeds
  Infection of the 1st leaf (in %): 17%
[4]; 100 g/100 kg seeds
  Infection of the 1st leaf (in %): 2%
[5]; [9]
  number of plants attacked just below the ear; result observed, expressed as percentage: 35 percentage
[5]; [10]
  number of plants attacked just below the ear; result observed, expressed as percentage: 39 percentage
[5]; [11]
  number of plants attacked just below the ear; result observed, expressed as percentage: 35 percentage
[5]; [12]
  number of plants attacked just below the ear; result observed, expressed as percentage: 39 percentage
[6]; [9]
  number of sheaths attacked; result observed, expressed as percentage: 82 percentage
[6]; [10]
  number of sheaths attacked; result observed, expressed as percentage: 90 percentage
[6]; [11]
  number of sheaths attacked; result observed, expressed as percentage: 82 percentage
[6]; [12]
  number of sheaths attacked; result observed, expressed as percentage: 90 percentage
Microdochium nivale; 5 g/100 kg seeds
  Number of diseased seedlings (in %): 89%
Microdochium nivale; 10 g/100 kg seeds
  Number of diseased seedlings (in %): 82%
Microdochium nivale; 25 g/100 kg seeds
  Number of diseased seedlings (in %): 89%
Microdochium nivale; 50 g/100 kg seeds
  Number of diseased seedlings (in %): 85%
Microdochium nivale; 100 g/100 kg seeds
  Number of diseased seedlings (in %): 80%
[7]; [9]
  area of leaves attacked; result observed, expressed as percentage: 79 percentage
[7]; [10]
  area of leaves attacked; result observed, expressed as percentage: 87 percentage
[7]; [11]
  area of leaves attacked; result observed, expressed as percentage: 79 percentage
[7]; [12]
  area of leaves attacked; result observed, expressed as percentage: 87 percentage
Fusarium moniliforme; 125 g/100 kg seeds
  Number of diseased seedlings (in %): 72%
Fusarium moniliforme; 250 g/100 kg seeds
  Number of diseased seedlings (in %): 76%
Sphacelotheca reiliana; infectious dose 0.125 g/kg, control 67
  Number of diseased seedlings (in %): 46%
Sphacelotheca reiliana; infectious dose 0.25 g/kg, control 71
  Number of diseased seedlings (in %): 40%
[8]; [9]
  number of grains in which the normal yellow color is replaced by brown blemishes; result observed, expressed as percentage: 63 percentage
[8]; [10]
  number of grains in which the normal yellow color is replaced by brown blemishes; result observed, expressed as percentage: 70 percentage
[8]; [11]
  number of grains in which the normal yellow color is replaced by brown blemishes; result observed, expressed as percentage: 63 percentage
[8]; [12]
  number of grains in which the normal yellow color is replaced by brown blemishes; result observed, expressed as percentage: 70 percentage
